We go through 24 compounds from patent US20110130426A1, “Novel Sulphonamide Derivatives as Glucocorticoid Receptor Modulators for the Treatment of Inflammatory Diseases” (ASTRAZENECA AB, priority 2004, published 2011).

For this experiment, the target named is T1, recombinant human GR (Homo sapiens, UniProt P04150).
T1 construct: purchased Panvera/Invitrogen P2812 (kit P2893)
T1 sequence (P04150 1-777): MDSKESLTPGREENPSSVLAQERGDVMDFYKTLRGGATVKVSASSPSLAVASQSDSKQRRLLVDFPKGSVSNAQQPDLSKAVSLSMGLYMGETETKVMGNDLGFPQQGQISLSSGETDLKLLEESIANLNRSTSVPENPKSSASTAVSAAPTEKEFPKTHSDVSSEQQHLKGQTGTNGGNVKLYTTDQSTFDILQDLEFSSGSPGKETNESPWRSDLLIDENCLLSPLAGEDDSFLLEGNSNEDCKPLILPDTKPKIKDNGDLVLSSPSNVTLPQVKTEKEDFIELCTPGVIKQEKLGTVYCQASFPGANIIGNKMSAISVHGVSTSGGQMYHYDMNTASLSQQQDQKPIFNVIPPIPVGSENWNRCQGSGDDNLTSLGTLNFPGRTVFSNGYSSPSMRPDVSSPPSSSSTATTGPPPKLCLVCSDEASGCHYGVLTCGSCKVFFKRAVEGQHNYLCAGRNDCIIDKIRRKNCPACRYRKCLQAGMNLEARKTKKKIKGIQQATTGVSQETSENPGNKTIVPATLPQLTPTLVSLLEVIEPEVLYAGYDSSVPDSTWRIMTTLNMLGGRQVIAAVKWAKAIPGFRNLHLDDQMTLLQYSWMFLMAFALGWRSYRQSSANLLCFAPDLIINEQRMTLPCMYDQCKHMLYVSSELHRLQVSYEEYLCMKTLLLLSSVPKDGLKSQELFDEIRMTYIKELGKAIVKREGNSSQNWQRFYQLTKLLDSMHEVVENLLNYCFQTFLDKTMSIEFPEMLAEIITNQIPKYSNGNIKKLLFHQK
Put plainly: Human Glucocorticoid Receptor (GR) Assay, fluorescence polarization. The class given is binding. The conditions noted are these: GS Red tracer, 2 hours at room temperature. The procedure: Human Glucocorticoid Receptor (GR) Assay
The assay is based on a commercial kit from Panvera/Invitrogen (Part number P2893). The assay technology is fluorescence polarization. The kit utilises recombinant human GR (Panvera, Part number P2812), a Fluoromone™ labelled tracer (GS Red, Panvera, Part number P2894) and a Stabilizing Peptide 10X (Panvera, Part number P2815). The GR and Stabilizing Peptide reagents are stored at −70° C. while the GS Red is stored at −20° C. Also included in the kit are 1M DTT (Panvera, Part number P2325, stored at −20° C.) and GR Screening buffer 10X (Panvera, Part number P2814, stored at −70° C. initially but once thawed stored at room temperature). Avoid repeated freeze/thaws for all reagents. The GR Screening buffer 10X comprises 100 mM potassium phosphate, 200 mM sodium molybdate, 1 mM EDTA and 20% DMSO.
Test compounds (1 μL) and controls (1 μL) in 100% DMSO were added to black polystyrene 384-well plates (Greiner low volume black flat-bottom, part number 784076). 0% control was 100% DMSO and 100% control was 10 μM Dexamethasone. Background solution ([…]; assay buffer 10X, Stabilizing Peptide, DTT and ice cold MQ water) was added to the background wells. GS Red solution (7 μL; assay buffer 10X, Stabilizing Peptide, DTT, GS Red and ice cold water) was added to all wells except background wells. GR solution (7 μL; assay buffer 10X, Stabilizing Peptide, DTT, GR and ice cold water) was added to all wells. The plate was sealed and incubated in a dark at room temperature for 2 hours. The plate was read in an Analyst plate reader (LJL Biosystems/Molecular Devices Corporation) or other similar plate reader capable of recording fluorescence polarization (excitation wavelength 530 nm, emission wavelength […] and a dichroic mirror at 561 nm). The IC50 values were calculated using XLfit model 205.
As usually defined, the IC50 is the concentration that inhibits the measured activity by half. As to `Cc1cc(S(=O)(=O)Nc2cccc(CCc3ccccn3)c2)c(C)o1` [Example 35, 2,5-Dimethyl-N-[3-(2-pyridin-2-ylethyl)phenyl]furan-3-sulfonamide], the IC50 amounted to 710 nM.
On to `COc1ccc(S(=O)(=O)NCc2ccc(-c3ccc(Cl)cc3)s2)cc1` [Example 26, N-{[5-(4-Chlorophenyl)-2-thienyl]methyl}-4-methoxybenzenesulfonamide], for which the half-inhibitory concentration (IC50) was determined as 200 nM.
Consider `O=[N+]([O-])c1ccc(S(=O)(=O)NCc2ccc(-c3ccc(Cl)cc3)s2)cc1` [Example 20, N-{[5-(4-Chlorophenyl)-2-thienyl]methyl}-4-nitrobenzenesulfonamide], for which the IC50 came to 59 nM.
In the case of “N-{[5-(4-Chlorophenyl)-2-thienyl]methyl}-3-(4-methylphenoxy)benzenesulfonamide [Example 32]” it was 390 nM.
In the case of `Cc1onc(-c2ccccc2)c1CNS(=O)(=O)c1ccc(-c2ccccc2)cc1` [Example 5, Biphenyl-4-sulfonic acid (5-methyl-3-phenyl-isoxazol-4-ylmethyl)-amide] it was 370 nM; in that of `COc1cc(C)c(S(=O)(=O)NCc2c(-c3ccccc3)noc2C)c(C)c1C` [Example 1, 4-Methoxy-2,3,6-trimethyl-N-(5-methyl-3-phenyl-isoxazol-4-ylmethyl)-benzenesulfonamide], 14 nM.
In the case of `O=S(=O)(Nc1cccc(CCc2ccccn2)c1)c1ccc(-c2ccccn2)s1` [Example 27, 5-Pyridin-2-yl-N-[3-(2-pyridin-2-ylethyl)phenyl]thiophene-2-sulfonamide] it was 200 nM.
On to `COc1cc(C)c(S(=O)(=O)NCc2ccc(-c3ccc(Cl)cc3)s2)c(C)c1C` [Example 31, N-{[5-(4-Chlorophenyl)-2-thienyl]methyl}-4-methoxy-2,3,6-trimethylbenzenesulfonamide], for which the IC50 is 330 nM.
For the compound `Cc1cc(S(=O)(=O)Nc2cccc(CCc3ccccn3)c2)c(C)s1` [Example 28, 2,5-dimethyl-N-[3-(2-pyridin-2-ylethyl)phenyl]thiophene-3-sulfonamide], the concentration for half-maximal inhibition (IC50) is 220 nM.
In the case of `Cc1nn(C(F)F)c(C)c1S(=O)(=O)Nc1cccc(CCc2ccccn2)c1` [Example 36, 1-(Difluoromethyl)-3,5-dimethyl-N-[3-(2-pyridin-2-ylethyl)phenyl]-1H-pyrazole-4-sulfonamide], the IC50 is 810 nM.
The value for `Cc1cc(C)cc(S(=O)(=O)Nc2cccc(CCc3ccccn3)c2)c1` [Example 29, 3,5-Dimethyl-N-[3-(2-pyridin-2-ylethyl)phenyl]benzenesulfonamide] was 230 nM; that for `O=S(=O)(NCc1ccc(-c2ccc(Cl)cc2)s1)c1ccc(F)cc1` [Example 21, N-{[5-(4-Chlorophenyl)-2-thienyl]methyl}-4-fluorobenzenesulfonamide] was 62 nM; that for `CCCCOc1ccc(S(=O)(=O)NCc2c(-c3ccccc3)noc2C)cc1` [Example 6, 4-n-Butoxy-N-(5-methyl-3-phenyl-isoxazol-4-ylmethyl)-benzenesulfonamide] was 700 nM.
In the case of `N#Cc1cccc(S(=O)(=O)NCc2ccc(-c3ccc(Cl)cc3)s2)c1` [Example 37, N-{[5-(4-Chlorophenyl)-2-thienyl]methyl}-3-cyanobenzenesulfonamide] it was 820 nM; in that of `Cn1nc(-c2ccc(S(=O)(=O)Nc3cccc(CCc4ccccn4)c3)s2)cc1C(F)(F)F` [Example 23, 5-[1-Methyl-5-(trifluoromethyl)-1H-pyrazol-3-yl]-N-[3-(2-pyridin-2-ylethyl)phenyl]-thiophene-2-sulfonamide], 110 nM.
`O=S(=O)(NCc1ccc(-c2ccc(Cl)cc2)s1)c1ccccc1Br` [Example 24, 2-Bromo-N-{[5-(4-chlorophenyl)-2-thienyl]methyl}benzenesulfonamide]: the half-inhibitory concentration (IC50) was 170 nM.
Regarding `Cc1ccc(C)c(S(=O)(=O)Nc2cccc(CCc3ccccn3)c2)c1` [Compound 49], the IC50 was 350 nM.
The value for “N-{[5-(4-Chlorophenyl)-2-thienyl]methyl}-4-(pyridin-2-yloxy)benzenesulfonamide [Example 25]” was 170 nM.
For the compound `O=S(=O)(Cc1ccc(Cl)cc1)NCc1ccc(-c2ccc(Cl)cc2)s1` [Example 34, 1-(4-Chlorophenyl)-N-{[5-(4-chlorophenyl)-2-thienyl]methyl}methanesulfonamide], the IC50 stood at 660 nM.
The value for `COc1cccc(S(=O)(=O)NCc2ccc(-c3ccc(Cl)cc3)s2)c1` [Example 30, N-{[5-(4-Chlorophenyl)-2-thienyl]methyl}-3-methoxybenzenesulfonamide] was 310 nM; that for `O=S(=O)(Nc1cccc(CCc2ccccn2)c1)c1ccc(Cl)s1` [Example 33, 5-Chloro-N-[3-(2-pyridin-2-ylethyl)phenyl]thiophene-2-sulfonamide] was 650 nM.
In the case of `Cc1c(S(=O)(=O)Nc2cccc(CCc3ccccn3)c2)cnn1-c1ccccc1` [Example 22, 5-Methyl-1-phenyl-N-[3-(2-pyridin-2-ylethyl)phenyl]-1H-pyrazole-4-sulfonamide] it was 99 nM.
In the case of `Cc1cc(C)c(S(=O)(=O)NCc2ccc(-c3ccc(Cl)cc3)s2)c(C)c1` [Example 19, N-{[5-(4-Chlorophenyl)-2-thienyl]methyl}-2,4,6-trimethylbenzenesulfonamide] it was 36 nM; in that of `Cc1onc(-c2ccccc2)c1CNS(=O)(=O)c1ccc(-c2ccc(F)cc2)cc1` [Example 2, 4′-Fluoro-biphenyl-4-sulfonic acid (5-methyl-3-phenyl-isoxazol-4-ylmethyl)-amide], 35 nM.
